From article PMC4047469 (Molecular & Cellular Proteomics : MCP, 2014) come the findings set out here.

For one assay, the target named is FGFR2 (Homo sapiens, UniProt P21802). The experiment in a line: in vitro kinase assay. In kind it is biochemical.
For the next assay, the target named is T1, DDR2 (Homo sapiens, UniProt Q16832).
T1 sequence (Q16832 22-855): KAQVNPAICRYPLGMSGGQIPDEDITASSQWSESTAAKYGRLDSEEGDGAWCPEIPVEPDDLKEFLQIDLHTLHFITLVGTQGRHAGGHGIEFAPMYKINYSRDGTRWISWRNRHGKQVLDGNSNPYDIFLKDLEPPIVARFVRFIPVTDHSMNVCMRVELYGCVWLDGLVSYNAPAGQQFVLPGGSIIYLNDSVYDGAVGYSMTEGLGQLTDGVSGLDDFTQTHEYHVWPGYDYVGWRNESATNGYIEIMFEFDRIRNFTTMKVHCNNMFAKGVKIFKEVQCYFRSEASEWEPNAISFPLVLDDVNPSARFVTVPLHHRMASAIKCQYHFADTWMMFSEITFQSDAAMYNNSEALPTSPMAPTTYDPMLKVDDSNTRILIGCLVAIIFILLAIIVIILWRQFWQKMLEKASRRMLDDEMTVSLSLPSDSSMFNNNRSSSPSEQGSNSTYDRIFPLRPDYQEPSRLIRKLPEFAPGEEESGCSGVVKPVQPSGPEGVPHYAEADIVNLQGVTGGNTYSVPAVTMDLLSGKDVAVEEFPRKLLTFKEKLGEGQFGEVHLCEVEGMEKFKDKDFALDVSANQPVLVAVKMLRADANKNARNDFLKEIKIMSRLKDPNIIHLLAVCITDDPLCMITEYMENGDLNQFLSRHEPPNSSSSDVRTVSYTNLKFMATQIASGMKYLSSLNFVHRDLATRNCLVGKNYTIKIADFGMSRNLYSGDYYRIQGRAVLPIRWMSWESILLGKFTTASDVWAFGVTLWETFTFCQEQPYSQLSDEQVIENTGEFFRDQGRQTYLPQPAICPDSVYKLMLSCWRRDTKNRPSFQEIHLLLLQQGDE
In words: autophosphorylation immunoblot. To be noted: 293T cells, collagen I 20 μg/ml, 120 min; E-3810 2, 8, 32 μM. In kind it is cell-based.

The target in a further assay is SRC (Homo sapiens, UniProt P12931). The experiment in a line: radiometric filter-binding kinase assay. The format is biochemical.
Sequence of SRC (P12931 2-536): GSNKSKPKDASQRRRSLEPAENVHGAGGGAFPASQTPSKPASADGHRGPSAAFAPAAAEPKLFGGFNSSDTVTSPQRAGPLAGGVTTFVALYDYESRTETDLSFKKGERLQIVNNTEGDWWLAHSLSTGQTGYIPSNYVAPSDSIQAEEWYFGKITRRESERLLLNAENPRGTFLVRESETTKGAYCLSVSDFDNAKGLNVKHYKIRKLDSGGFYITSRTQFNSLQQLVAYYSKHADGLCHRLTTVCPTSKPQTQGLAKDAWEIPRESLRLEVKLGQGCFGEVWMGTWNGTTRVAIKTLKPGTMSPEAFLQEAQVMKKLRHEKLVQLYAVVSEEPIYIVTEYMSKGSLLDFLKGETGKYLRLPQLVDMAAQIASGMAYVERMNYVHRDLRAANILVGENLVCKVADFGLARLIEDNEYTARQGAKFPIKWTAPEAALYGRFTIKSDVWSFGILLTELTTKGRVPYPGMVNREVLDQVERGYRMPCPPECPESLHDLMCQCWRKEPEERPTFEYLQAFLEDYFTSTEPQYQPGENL

The structures appear in SMILES notation.

Sequence of FGFR2 (P21802 22-821): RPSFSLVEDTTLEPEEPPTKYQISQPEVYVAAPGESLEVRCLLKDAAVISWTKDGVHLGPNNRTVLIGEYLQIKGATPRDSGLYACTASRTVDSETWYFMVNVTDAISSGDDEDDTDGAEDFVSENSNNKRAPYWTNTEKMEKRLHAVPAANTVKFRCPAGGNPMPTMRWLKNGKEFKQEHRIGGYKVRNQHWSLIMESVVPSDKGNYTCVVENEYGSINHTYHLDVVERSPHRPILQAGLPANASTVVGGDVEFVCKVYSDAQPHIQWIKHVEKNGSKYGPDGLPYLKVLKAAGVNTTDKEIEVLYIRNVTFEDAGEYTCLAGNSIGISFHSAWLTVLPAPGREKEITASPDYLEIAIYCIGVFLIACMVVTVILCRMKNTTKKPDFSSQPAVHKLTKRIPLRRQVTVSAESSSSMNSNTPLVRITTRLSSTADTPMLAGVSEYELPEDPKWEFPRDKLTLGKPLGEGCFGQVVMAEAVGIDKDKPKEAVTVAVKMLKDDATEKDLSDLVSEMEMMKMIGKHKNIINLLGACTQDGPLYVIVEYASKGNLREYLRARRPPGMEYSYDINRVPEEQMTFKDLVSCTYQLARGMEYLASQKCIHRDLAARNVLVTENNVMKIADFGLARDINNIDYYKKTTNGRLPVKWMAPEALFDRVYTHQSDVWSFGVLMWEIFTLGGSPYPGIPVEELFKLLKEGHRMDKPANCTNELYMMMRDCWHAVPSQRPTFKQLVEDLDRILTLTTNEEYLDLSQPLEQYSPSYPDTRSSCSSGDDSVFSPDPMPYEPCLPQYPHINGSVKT

Consider `CNC(=O)c1cccc2cc(Oc3ccnc4cc(OCC5(N)CC5)c(OC)cc34)ccc12` [compound 1, E-3810], for which 77 nM corresponded to half-maximal inhibition against FGFR2 (IC50). The autophosphorylation immunoblot entry at DDR2 is on record as “increasing concentrations of E-3810 resulted in the reduction of DDR2 autophosphorylation”. The inhibitory constant (Ki) at SRC is over 50000 nM.
